Counter-ions that a name gives are not always drawn.
Assays:
[1] = biological target: T1, muscarinic cholinergic receptors on intestinal (ileal-longitudinal) smooth muscle (Cavia porcellus, UniProt H0W1Z3); experiment: Antimuscarinic test: antagonism of carbachol contraction of isolated ileum (Muscarinic Antagonist Activity, Ileum); set-up: species or system guinea pig; conditions: carbachol agonist, 37° C.
T1 construct: The longitudinal muscle, with the myenteric plexus attached, is separated from the underlying circular muscle; from tissue; host or cells: guinea pig ileum, longitudinal smooth muscle with myenteric plexus

Male Guinea pigs = experiment: Primary in vivo bronchodilator assay for muscarinic antagonists (reversal of carbachol bronchoconstriction); set-up: species or system guinea pig; conditions: cumulative dose causing 50% reversal of carbachol bronchoconstriction; for ED50: Cavia porcellus, iv; for Bronchodilator Activity ED50: i.v.
Procedure: PRIMARY IN VIVO BRONCHODILATOR ASSAY FOR MUSCARINIC ANTAGONISTS Male Guinea pigs were anesthetized by urethane. The trachea, carotid artery and jugular vein were cannulated. Animals were ventilated with room air at a constant rate and volume. Airway pressure was measured from a side port of the tracheal catheter, and blood pressure and heart rate were monitored as well. After a stable baseline period, an aerosol of carbachol was administered via an ultrasonic nebulizer. Once the bronchoconstrictor response plateaued, test compound was given in increasing i.v. doses to cause graded, cumulative reductions in airway pressure. If more than a 50% reversal of bronchoconstriction occurred, an ED50 value for bronchodilator potency was calculated using a probit analysis. The ED50 was defined as the cumulative i.v. dose that caused a 50% reversal of bronchoconstriction.

T1 sequence (H0W1Z3 1-590): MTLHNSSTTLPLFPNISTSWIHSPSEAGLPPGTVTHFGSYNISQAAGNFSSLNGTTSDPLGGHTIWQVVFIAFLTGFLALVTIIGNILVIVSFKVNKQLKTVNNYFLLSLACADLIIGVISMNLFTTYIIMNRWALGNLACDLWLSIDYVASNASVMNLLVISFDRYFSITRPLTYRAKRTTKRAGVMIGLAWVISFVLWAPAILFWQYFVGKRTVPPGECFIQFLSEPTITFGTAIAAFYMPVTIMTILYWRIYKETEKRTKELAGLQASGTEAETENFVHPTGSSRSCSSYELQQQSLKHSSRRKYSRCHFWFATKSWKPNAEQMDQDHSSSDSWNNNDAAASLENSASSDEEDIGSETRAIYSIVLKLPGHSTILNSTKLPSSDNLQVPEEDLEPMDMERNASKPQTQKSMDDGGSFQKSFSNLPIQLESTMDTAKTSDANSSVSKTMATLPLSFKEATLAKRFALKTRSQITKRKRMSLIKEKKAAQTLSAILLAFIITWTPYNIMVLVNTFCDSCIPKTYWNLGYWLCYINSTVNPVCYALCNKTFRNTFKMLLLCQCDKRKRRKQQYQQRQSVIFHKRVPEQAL

| SMILES | Kb [1] | ED50 (Male Guinea pigs) | Bronchodilator Activity ED50 (Male Guinea pigs) |
| --- | --- | --- | --- |
| O=C1OC(Cn2ccnc2Cc2ccccc2)CC1(c1ccccc1)c1ccccc1 (centres unmarked) [5-[1-(2-Benzylimidazol)methyl]-4,5-dihydro-3,3-diphenyl-2(3H)furanone hydrochloride] | 223 nM |  |  |
| COC(=O)c1nccn1CC1CC(c2ccccc2)(c2ccccc2)C(=O)O1 (centres unmarked) [5-[1-(2-Carbomethoxyimidazol)methyl]-4,5-dihydro-3,3-diphenyl-2(3H)furanone hydrochloride] | 435 nM |  |  |
| CC(C)(C)c1nccn1CC1CC(c2ccccc2)(c2ccccc2)C(=O)O1 (centres unmarked) [5-[1-(2-tert-Butylimidazol)methyl]-4,5-dihydro-3,3-diphenyl-2(3H)furanone hydrochloride] | 3.3 nM | 0.14 mg/kg |  |
| CCCCc1nccn1CC1CC(c2ccccc2)(c2ccccc2)C(=O)O1 (centres unmarked) [5-[1-(2-n-Butylimidazol)methyl]-4,5-dihydro-3,3-diphenyl-2(3H)furanone] | 113 nM | > 10 mg/kg |  |
| COCc1nccn1CC1CC(c2ccccc2)(c2ccccc2)C(=O)O1 (centres unmarked) [5-[1-[2-(2-Methoxymethyl)imidazol]methyl]-4,5-dihydro-3,3-diphenyl-2(3H)furanone hydrochloride hydrate] | 67 nM | > 10 mg/kg |  |
| CC(C)Cc1nccn1CC1CC(c2ccccc2)(c2ccccc2)C(=O)O1 (centres unmarked) [5-[1-(2-Isobutylimidazol)methyl]-4,5-dihydro-3,3-diphenyl-2(3H)furanone hydrochloride] | 489 nM | > 10 mg/kg |  |
| COCCc1n(CC2CC(c3ccccc3)(c3ccccc3)C(=O)O2)cc[n+]1C (centres unmarked) [5-[1-(2-Methoxyethyl-3-methylimidazol)methyl]-4,5-dihydro-3,3-diphenyl-2(3H)furanone iodide hydrate] | 39 nM |  |  |
| O=C1OC(Cn2ccnc2)CC1(c1ccccc1)c1ccccc1 (centres unmarked) [5-[(1-Imidazol)methyl]-4,5-dihydro-3,3-diphenyl-2(3H)furanone] | 373 nM |  |  |
| CCOCc1nccn1CC1CC(c2ccccc2)(c2ccccc2)C(=O)O1 (centres unmarked) [5-[1-(2-Ethoxymethylimidazol)methyl]-4,5-dihydro-3,3-diphenyl-2(3H)furanone] | > 1000 nM | > 10 mg/kg |  |
| O=C1OC(C[N+]2=C3CCCCCN3CCC2)CC1(c1ccccc1)c1ccccc1 (centres unmarked) [5-[(1,8-Diazabicyclo[5.4.0]undec-7-en-8-yl)methyl]-4,5-dihydro-3,3-diphenyl-2(3H)furanone chloride hydrate] | > 1000 nM | > 10 mg/kg |  |
| CCc1nccn1CC1=CC(c2ccccc2)(c2ccccc2)C(=O)O1 [5-[1-(2-Ethylimidazol)methyl]-3,3-diphenyl-2(3H)furanone] | 8.2 nM | 1.9 mg/kg |  |
| O=C1OC(C[n+]2ccn3ccccc32)CC1(c1ccccc1)c1ccccc1 (centres unmarked) [1-[(2,3,4,5-Tetrahydro-5-oxo-4,4-diphenyl-2-furanyl)methyl]imidazo[1,2-a]pyridinium chloride hydrate] | 45 nM |  |  |
| COCc1n(CC2CC(c3ccccc3)(c3ccccc3)C(=O)O2)cc[n+]1C (centres unmarked) [5-[1-(2-Methoxymethyl-3-methylimidazol)methyl]-4,5-dihydro-3,3-diphenyl-2(3H)furanone iodide] | 40 nM |  |  |
| CC(C)c1n(CC2CC(c3ccccc3)(c3ccccc3)C(=O)O2)cc[n+]1C (centres unmarked) [5-[1-(2-Isopropyl-3-methylimidazol-methyl]-4,5-dihydro-3,3-d] [5-[1-(2-Isopropyl-3-methylimidazol-methyl]-4,5-dihydro-3,3-diphenyl-2(3H)furanone bromide] |  |  | 0.007 mg/kg |
| Cc1n(CC2CC(c3ccccc3)(c3ccccc3)C(=O)O2)cc[n+]1Cc1ccccc1 (centres unmarked) [5-[1-(2-Methyl-3-benzylimidazol)methyl]-4,5-dihydro-3,3-diphenyl-2(3H)furanone bromide] | 544 nM |  |  |
| CCc1nc(C)cn1CC1CC(c2ccccc2)(c2ccccc2)C(=O)O1 (centres unmarked) [5-[1-(2-Ethyl-4-methylimidazol-methyl]-4,5-dihydro-3,3-diphenyl-2(3H)furanone hydrobromide] | 86 nM |  |  |
| CC(C)c1n(CC2CC(c3ccccc3)(c3ccccc3)C(=O)O2)cc[n+]1C (centres unmarked) [5-[1-(2-Isopropyl-3-methylimidazol)methyl]-4,5-dihydro-3,3-d] [5-[1-(2-Isopropyl-3-methylimidazol)methyl]-4,5-dihydro-3,3-diphenyl-2(3H)furanone iodide] |  |  | 0.06 mg/kg |
| Cc1cccn2cc[n+](CC3CC(c4ccccc4)(c4ccccc4)C(=O)O3)c12 (centres unmarked) [1-[(2,3,4,5-Tetrahydro-5-oxo-4,4-diphenyl-2-furanyl)methyl]-8-methylimidazo[1,2-a]pyridinium chloride hydrate] | 74 nM |  |  |
| O=C1OC(Cn2cnc3ccccc32)CC1(c1ccccc1)c1ccccc1 (centres unmarked) [5-[(1-Benzimidazol)methyl]-4,5-dihydro-3,3-diphenyl-2(3H)furanone] | 1280 nM |  |  |
| O.O=C1OC(C[n+]2ccn3c2CCC3)CC1(c1ccccc1)c1ccccc1.[Cl-] (centres unmarked) [6,7-Dihydro-1-[(2,3,4,5-tetrahydro-5-oxo-4,4-diphenyl-2-furanyl)methyl]-5H-pyrrolo[1,2-a]imidazolium chloride hydrate] | 33 nM | 0.7 mg/kg |  |
| O=C1OC(Cn2ccnc2-c2ccccc2)CC1(c1ccccc1)c1ccccc1 (centres unmarked) [5-[1-(2-Phenylimidazol)methyl]-4,5-dihydro-3,3-diphenyl-2(3H)furanone] | 5920 nM | > 6 mg/kg |  |
| CCn1cc[n+](CC2CC(c3ccccc3)(c3ccccc3)C(=O)O2)c1 (centres unmarked) [5-[1-(Ethylimidazol)methyl]-4,5-dihydro-3,3-diphenyl-2(3H)furanone bromide] | 229 nM |  |  |
| COCCc1nccn1CC1CC(c2ccccc2)(c2ccccc2)C(=O)O1 (centres unmarked) [5-[1-(2-Methoxyethylimidazol)methyl]-4,5-dihydro-3,3-diphenyl-2(3H)furanone hydrochloride] | 638 nM | > 10 mg/kg |  |
| Cc1n(CC2CC(c3ccccc3)(c3ccccc3)C(=O)O2)cc[n+]1C (centres unmarked) [5-[1-(2,3-Dimethylimidazol)methyl]-4,5-dihydro-3,3-diphenyl-2(3H)furanone bromide] | 71 nM | 0.85 mg/kg |  |

From patent publication US5039691A, “5-(1-(imidazol)methyl)-3,3-disubstituted-2(3H)furanone derivatives” (Marion Merrell Dow Inc., priority 1990, dated 1991)
